The results in this text go back to ChEMBL document CHEMBL5136972, “Targeting SARS-CoV-2 Proteases and Polymerase for COVID-19 Treatment: State of the Art and Future Opportunities” (J Med Chem, 2022).

The structures appear in SMILES notation.

For the test, the target named is Replicase polyprotein 1ab (Severe acute respiratory syndrome coronavirus 2, UniProt P0DTD1).

On to `Cc1cc(C(=O)N[C@@H](C)C(=O)N[C@H](C(=O)N[C@@H](CC(C)C)C(=O)N[C@H](/C=C/C(=O)OCc2ccccc2)C[C@@H]2CCNC2=O)C(C)C)no1`, for which the inhibition constant (Ki) is 9 µM.

By Ki is commonly meant the dissociation constant of the complex between target and ligand, obtained from inhibition or displacement.
